The term Kd denotes a measure of binding affinity in units of concentration. For orientation: koff means a measure of how fast the partners let go of each other. Usually kon stands for a measure of how fast the partners come together. Higher therefore signals fast association.

Where no end group is shown, it is not given here.

For 22 sequences, Kd, koff and kon results are on record in article PMC2978705, “Thermodynamic Additivity of Sequence Variations: An Algorithm for Creating High Affinity Peptides Without Large Libraries or Structural Information” (PLoS ONE, 2010).

What all share (assay type): binding
The target of assay [1] is T1, TNF-α (Homo sapiens, UniProt P01375). In words: Equilibrium SPR affinity of peptides for captured TNF-α. The procedure:
Point-variant libraries were prepared in 96-well stock plates as described in the supporting information. From the stock plate, peptides were diluted to 50 µM or 10 µM in Biacore HBS-EP buffer (GE Healthcare, Piscataway, NJ) containing 1 mg/ml carboxymethyl-dextran (Sigma-Aldrich, St. Louis, MO) to reduce non-specific binding to the CM-5 SPR chip surface. Biotinylated TNF-α was captured on a neutravidin coated Biacore CM-5 chip (GE Healthcare, Piscataway, NJ) at different levels on spots 1, 2, 4, and 5 across all four flow cells corresponding to a low to moderate Rmax range of 40-200 RU. Spot 3 on all flow cells contained only immobilized neutravidin and served as a reference spot.
Responses were normalized to the predicted Rmax so that results from different TNF-α capture levels could be directly compared.
Sequences containing multiple enhancing point variations were synthesized using standard solid-phase synthesis and purified. Multiple variant affinities were determined with the same protocol used for point-variant affinities.
Peptide binding energies and dissociation constants (Kd) were calculated separately as a mean and standard error of all replicate measurements.
Text S1: Experimental Details […]
Point-Variant Libraries. Point-variant libraries were ordered in PEPScreen® 96 -vial format from Sigma-Genosys (St. Louis, MO). The purity of each peptide in the library was […]
was dissolved in HBS-N buffer to an approximate 2 mg/ml concentration, each vial was centrifuged to spin insoluble peptide to the bottom of the vial. Supernatant was collected from each vial and transferred to a 96-well plate, peptide supernatant concentrations in each well was measured using A280 absorbance and a predicted molar extinction coefficient (ε280) based on the specific peptide sequence. Based on the supernatant concentrations, all the […]
plate(s). All SPR screens of the point-variants were done using dilutions from this stock […]
SPR Assays. SPR Chip Preparation. Unless otherwise noted, SPR immobilization was done on a Biacore A100 SPR system (GE Healthcare, Piscataway, NJ). A standard coupling protocol was employed to immobilize a neutravidin capture surface via exposed primary amines. The immobilization was performed at 25 °C using Sodium Acetate (10 mM in 150 mM Sodium Chloride, pH 4.5) as the running buffer. Addressable spots 1, 2, 3 on each of the four flow cells of the CM-5 dextran SPR chip (GE Healthcare, Piscataway, NJ) were activated by a 10 minute injection of a freshly prepared 1:1 solution of 400 mM 1-ethyl-3-(3-dimethylaminopropyl)-carbodimide (EDC): 100 mM N-hydroxysuccimide (NHS) in […]

In assay [2] the target is transferrin (Homo sapiens, UniProt P02787). The experiment in a line: Equilibrium SPR affinity of TRF26 peptides for immobilized transferrin. Conditions: peptide concentration series.
Assay [3] has as its target T1, TNF-α. The experiment in a line: Kinetic fits of SPR sensorgrams. Conditions: for Kd: from koff and kon of SPR kinetic fits; for koff / kon: kinetic fits of SPR sensorgrams across a concentration series. The procedure:
Kinetic fits of the TNF1 and TNF1-opt SPR sensorgrams (Figure S7 in File S1) indicate that TNF1-opt has approximately an order of magnitude or more improvement in both on-rate (kon), and off-rate (koff), when compared to TNF1 (TNF1: koff = 1.6±0.5 s^−1, kon = 5.0±1.7×10^3 M^−1s^−1, TNF1-opt: koff = 0.2±0.02 s^−1 kon = 2.6±0.2×10^5 M^−1s^−1).
Figure S7. SPR sensorgram kinetic fits for TNF1 and TNF1-opt. On-rates (kon), off-rates (koff) and dissociation constants (Kd) shown were determined from kinetic fits of several sensorgrams across the same concentration series used in equilibrium binding response analysis.
(1 picture or pasted object on this page, not shown here)
In general terms: SPR reads the build-up and loss of mass on a sensor chip optically.

Assay [4] addresses T1, TNF-α. In words: Solution-phase fluorescence anisotropy of labeled TNF1-opt with TNF-α. The note with it: peptide labeled at C-terminal cysteine fixed at 100 nM, TNF-α varied 80 nM to 10 µM, triplicate. Here is the method:
Figure 4 Equilibrium binding isotherms for TNF1-opt. Outer plot: SPR normalized replicate responses performed with TNF-α captured on the SPR chip surface and variable TNF-opt concentrations flowed over the surface. Inset plot: Solution-phase fluorescence anisotropy measurements performed in triplicate with TNF1-opt labeled at the C-terminal cysteine, TNF-opt concentration was fixed at 100 nM while TNF-α concentration was varied. TNF1-opt sensorgrams are available in Figure S5 in File S1, SPR binding isotherms for all enhanced variants tested are available in Figure S6 in File S1.
TNF1 and TNF4 Lead Generation from a […] Random Peptide Screen. Peptide Library and SPR Chip Preparation. Random 20-mer peptides were prepared in 384-well plates and diluted with Biacore HBS-EP buffer (GE Healthcare, Piscataway, NJ) containing 1 mg/ml carboxymethyl-dextran (Sigma-Aldrich, St. Louis, MO) to reduce non-specific binding to the CM-5 SPR chip surface. […]
TNF1-opt Fluorescence Polarization Affinity Characterization. Fluorescence anisotropy measurements were performed on a custom fluorimeter with an orthogonal optical configuration. […]
200 nM TNF-α and 200 nM E.coli lysate (calculated as a total protein concentration in the lysate) labeled with Alexa-555 and Alexa-647 (Invitrogen, Carlsbad, CA) respectively in PBST buffer containing 1% BSA was incubated with the microarray for 1 hour in a humidity chamber. […]

The mark [5] stands for this setting: equilibrium SPR, TNF-α captured on chip, peptide concentration series, mean ± standard error of several replicates, SEM.
The mark [6] stands for this setting: equilibrium SPR binding responses, TNF-α.

Sequence of transferrin (P02787 20-698, species assumed): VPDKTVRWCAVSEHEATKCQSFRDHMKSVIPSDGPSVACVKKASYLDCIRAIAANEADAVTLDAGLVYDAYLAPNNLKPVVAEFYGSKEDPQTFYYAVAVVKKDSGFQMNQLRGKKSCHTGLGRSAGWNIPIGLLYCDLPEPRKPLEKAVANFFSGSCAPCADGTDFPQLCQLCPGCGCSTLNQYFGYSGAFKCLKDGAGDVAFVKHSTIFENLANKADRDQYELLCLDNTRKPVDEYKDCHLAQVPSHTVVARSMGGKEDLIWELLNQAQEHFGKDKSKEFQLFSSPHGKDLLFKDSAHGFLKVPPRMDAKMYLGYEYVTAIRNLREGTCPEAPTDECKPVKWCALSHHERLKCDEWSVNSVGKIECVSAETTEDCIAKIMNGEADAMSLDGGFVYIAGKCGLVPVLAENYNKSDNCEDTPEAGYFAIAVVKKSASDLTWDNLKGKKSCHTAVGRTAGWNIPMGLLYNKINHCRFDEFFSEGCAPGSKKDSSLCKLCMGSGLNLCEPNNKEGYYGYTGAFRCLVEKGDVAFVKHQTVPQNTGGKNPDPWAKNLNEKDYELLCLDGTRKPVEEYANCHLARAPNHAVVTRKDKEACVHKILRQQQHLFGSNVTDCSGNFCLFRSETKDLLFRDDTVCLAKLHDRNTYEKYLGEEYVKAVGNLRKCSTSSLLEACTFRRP
T1 sequence (P01375 77-233 limits assumed): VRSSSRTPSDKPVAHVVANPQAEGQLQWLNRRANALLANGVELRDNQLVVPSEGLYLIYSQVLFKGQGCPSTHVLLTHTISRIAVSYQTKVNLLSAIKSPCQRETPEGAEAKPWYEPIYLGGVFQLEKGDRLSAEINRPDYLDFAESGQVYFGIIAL

As for FERDPLMMPWKFLQSRQGSC [Peptide S11K], the equilibrium dissociation constant (Kd) in assay [1] (setting [5]) came to 40 ± 7.2 µM. Same read-out and setting: then FERYPLKMPWSFLQSRQGSC [D4Y+M7K], with 17 ± 1.9 µM. Turning to YGPSDAFKIYRFHQQSSGSC [Peptide T10Y], the dissociation constant Kd in assay [1] (setting [6]) worked out at 0.31 ± 0.01 µM. FERSYLMMPWKFLQSRQGSC [D4S+P5Y+S11K] displayed a Kd in assay [1] (setting [5]) of 7 ± 0.5 µM. FERDYLKMPWSFLQSRQGSC [P5Y+M7K] had a Kd in assay [1] (setting [5]) of 27 ± 1.8 µM. Turning to FERDYLMMPWSFLQSRQGSC [Peptide P5Y], in assay [1] (setting [5]), the Kd amounted to 58 ± 3.4 µM. Consider FERSYLKMPWSFLQSRQGSC [D4S+P5Y+M7K], for which binding in assay [1] (setting [5]) was put at a Kd of 14 ± 1 µM. AHKVVPQRQIRHAYNRYGSC [TRF26] came in with a Kd in assay [2] of 85 ± 14 µM.

In the case of YGPSYAFKITRFHQQSSGSC [Peptide D5Y], in assay [1] (setting [6]), the Kd amounted to 0.28 ± 0.04 µM. Sequence FERDPLKMPWSFLQSRQGSC [Peptide M7K] showed a Kd in assay [1] (setting [5]) of 57 ± 20 µM.

In assay [1] (setting [5]), FERDYLMMPWKFLQSRQGSC [P5Y+S11K] had a Kd of 24 ± 1.4 µM.

In assay [1] (setting [5]), FERYPLMMPWSFLQSRQGSC [Peptide D4Y] returned a Kd of 44 ± 4.8 µM.

AHKVVYQRQIRFAYNRYGSC [P6Y+H12F] displayed an equilibrium dissociation constant (Kd) in assay [2] of 0.5 ± 0.1 µM. Same read-out and setting: then AHKVVPQRQIRFAYNRYGSC [Peptide H12F], with 9.7 ± 1.6 µM.

Consider WGPSYAFKIYRFHQQSSGSC [TNF4-opt], for which the Kd in assay [3] (read-out: Kd resulting from rate constants) was found to be 0.13 ± 0.03 µM. Besides, in assay [3], the koff was 0.0075 ± 8e-07 s⁻¹ and the kon is 58000 ± 1.2e+08 M⁻¹ s⁻¹. In addition, the Kd in assay [1] (setting [6]) was found to be 0.09 ± 0.02 µM. With FERDPLMMPWSFLQSRQGSC [TNF1], in assay [3], the koff came out at 1.6 ± 0.5 s⁻¹ and the kon stood at 5000 ± 1.7e+06 M⁻¹ s⁻¹. This sequence had a Kd in assay [1] (setting [5]) of 160 ± 19 µM.

FERSYLKMPWKFLQSRQGSC [TNF1-opt]: the Kd in assay [3] (read-out: Kd calculated from rate constants) was 0.7 ± 0.02 µM; in assay [1] (setting [5]) it was 1.6 ± 0.3 µM; in assay [4] it was 1.1 ± 0.2 µM. This sequence also registered a koff in assay [3] of 0.2 ± 0.02 s⁻¹. In addition, the association rate constant (kon) in assay [3] is 260000 ± 2e+09 M⁻¹ s⁻¹.

YGPSDAFKITRFHQQSSGSC [TNF4] displayed a Kd in assay [1] (setting [5]) of 23 ± 3.5 µM.

In assay [1] (setting [6]), WGPSDAFKITRFHQQSSGSC [Peptide Y1W] had a Kd of 0.38 ± 0.08 µM. Regarding WGPSYAFKITRFHQQSSGSC [Y1W+D5Y], in assay [1] (setting [6]), binding was characterised by a dissociation constant (Kd) of 0.2 ± 0.03 µM.

AHKVVYQRQIRHAYNRYGSC [Peptide P6Y] gave a Kd in assay [2] of 8.6 ± 1.6 µM. As to FERYPLMMPWKFLQSRQGSC [D4Y+S11K], the Kd in assay [1] (setting [5]) was 9.3 ± 0.7 µM.
